Reference: EPA's ToxRefDB 2

What was measured:
dog [1] = details: Chronic toxicity; beagle; Oral; Gavage/Intubation; dose end: 364 day; group: systemic; systemic / in life observation / body weight / body weight + systemic / in life observation / clinical signs / arrhythmia + systemic / in …
rat [2] = details: Sub-acute repeat dose toxicity, sprague dawley, Oral, Gavage/Intubation, dose end: 30 day, group: systemic
rabbit [3] = details: Sub-acute repeat dose toxicity; new zealand white; Oral; Gavage/Intubation; dose end: 5 day; group: systemic; systemic / in life observation / body weight / body weight + systemic / in life observation / food consumption / food consumption
dog [4] = details: Sub-acute repeat dose toxicity; beagle; Oral; Gavage/Intubation; dose end: 30 day; group: systemic; systemic / clinical chemistry / potassium / potassium + systemic / in life observation / clinical signs / emesis + systemic / in life …
rat [5] = details: Fertility (Segment I), sprague dawley, Oral, Gavage/Intubation, dose end: 1 generation, group: parental
rabbit [6] = details: Prenatal developmental toxicity study, Oral, Gavage/Intubation, dose end: 19 GD
mouse = details: Sub-acute repeat dose toxicity, Oral, Feed, dose end: 14 day, group: systemic
rat [7] = details: Sub-acute repeat dose toxicity, sprague dawley, Oral, Gavage/Intubation, dose end: 14 day, group: systemic
rat [8] = details: Sub-acute repeat dose toxicity, sprague dawley, Oral, Feed, dose end: 14 day, group: systemic
rat [9] = details: Fertility (Segment I), sprague dawley, Oral, Gavage/Intubation, dose end: 1 generation, group: parental; remark: listed apart in the source
dog [10] = details: Sub-acute repeat dose toxicity; beagle; Oral; Gavage/Intubation; dose end: 10 day; group: systemic; systemic / in life observation / clinical signs / abnormal feces + systemic / in life observation / clinical signs / salivation + systemic…
rat [11] = details: Chronic toxicity; sprague dawley; Oral; Gavage/Intubation; dose end: 182 day; group: systemic; systemic / clinical chemistry / glucose / glucose + systemic / clinical chemistry / triglycerides / triglycerides + systemic / in life …
[12] = systemic / clinical chemistry / 5' nucleotidase / 5' nucleotidase + systemic / clinical chemistry / [other] / [other] + systemic / clinical …
[13] = systemic / in life observation / body weight / body weight + systemic / in life observation / clinical signs / salivation + systemic / in …
[14] = systemic / in life observation / body weight / body weight + systemic / in life observation / food consumption / food consumption
[15] = group: developmental, developmental / developmental malformation / bone / delayed ossification + systemic / in life observation / body weight / fetal weight
[16] = group: maternal, systemic / in life observation / body weight / body weight gain + systemic / in life observation / food consumption / food consumption
[17] = systemic / in life observation / body weight / body weight + systemic / in life observation / body weight / body weight gain + systemic / in…
[18] = systemic / hematology / erythrocyte (rbc) count differential / erythrocyte (rbc) + systemic / hematology / hematocrit (hct) / hematocrit (…
[19] = systemic / in life observation / clinical signs / salivation
[20] = systemic / in life observation / food consumption / food consumption + systemic / in life observation / body weight / body weight
[21] = systemic / in life observation / food consumption / food consumption + systemic / in life observation / body weight / body weight + systemic…

With `O=C(Cc1ccc(Cl)c(Cl)c1)N(O)[C@H](CN1CC[C@H](O)C1)c1ccccc1` the LEL (dog [1]) was 1 mg/kg/day, the LOAEL (dog [1]) was over 1 mg/kg/day and the NEL (dog [1]) was under 1 mg/kg/day. It also gave an NOAEL (dog [1]) of at least 1 mg/kg/day, an LOAEL (rat [2]; [12]) of over 150 mg/kg/day and an NOAEL (rat [2]; [12]) of at least 150 mg/kg/day. For the same compound, the NEL (rat [2]; systemic / clinical chemistry / [other] / [other] + systemic / clinical chemistry / albumin / albumin + systemic / clinical chemistry / …) was 1 mg/kg/day, the LEL (rabbit [3]) was 1 mg/kg/day and the LOAEL (rabbit [3]) was over 150 mg/kg/day. The NEL (rabbit [3]) was under 1 mg/kg/day, the NOAEL (rabbit [3]) was at least 150 mg/kg/day and the LOAEL (dog [4]) was over 1 mg/kg/day. It also gave an NOAEL (dog [4]) of at least 1 mg/kg/day, an LOAEL (rat [5]; [13]) of over 50 mg/kg/day and an NEL (rat [5]; [13]) of 1 mg/kg/day. The NOAEL (rat [5]; [13]) was at least 50 mg/kg/day, the LEL (rat [5]; [14]) was 10 mg/kg/day and the LOAEL (rabbit [6]; [15]) was over 5 mg/kg/day. For the same compound, the NOAEL (rabbit [6]; [15]) was at least 5 mg/kg/day, the LOAEL (rabbit [6]; [16]) was over 5 mg/kg/day and the NOAEL (rabbit [6]; [16]) was at least 5 mg/kg/day. The LOAEL (mouse; [17]) was over 1000 mg/kg/day, the NOAEL (mouse; [17]) was at least 1000 mg/kg/day and the LEL (mouse; systemic / in life observation / clinical signs / hunched posture) was 300 mg/kg/day. The LOAEL (rat [7]; [18]) was over 500 mg/kg/day, the NOAEL (rat [7]; [18]) was at least 500 mg/kg/day and the LEL (rat [7]; [19]) was 25 mg/kg/day. The NEL (rat [7]; [19]) was under 25 mg/kg/day, the LEL (rat [8]; [20]) was 1 mg/kg/day and the NEL (rat [8]; [20]) was under 1 mg/kg/day. For the same compound, the LOAEL (rat [8]; [21]) was over 300 mg/kg/day, the NOAEL (rat [8]; [21]) was at least 300 mg/kg/day and the LOAEL (rat [9]; [13]) was over 50 mg/kg/day. It also gave an NEL (rat [9]; [13]) of 1 mg/kg/day, an NOAEL (rat [9]; [13]) of at least 50 mg/kg/day and an LEL (rat [9]; [14]) of 10 mg/kg/day. It also gave an LEL (dog [10]) of 1 mg/kg/day, an LOAEL (dog [10]) of over 1 mg/kg/day and an NEL (dog [10]) of under 1 mg/kg/day. For the same compound, the NOAEL (dog [10]) was at least 1 mg/kg/day, the LOAEL (rat [11]) was over 150 mg/kg/day and the NEL (rat [11]) was 1 mg/kg/day. The NOAEL (rat [11]) was at least 150 mg/kg/day.
